Experimental data as given in PubChem BioAssay (NCI).
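Compound exposure: 48 hours, 5 concentrations, 96-well plates. TGI denotes the concentration required for complete inhibition of growth.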

What was measured:
Assay in all cases: NCI-60 cell line screen, 48 h
BT-549 breast = test system: BT-549 breast
COLO 205 colon = test system: COLO 205 colon
DU-145 prostate = test system: DU-145 prostate
EKVX NSCLC = test system: EKVX NSCLC
HL-60(TB) leukemia = test system: HL-60(TB) leukemia
HOP-62 NSCLC = test system: HOP-62 NSCLC
HOP-92 NSCLC = test system: HOP-92 NSCLC
IGROV1 ovarian = test system: IGROV1 ovarian
M14 melanoma = test system: M14 melanoma
MALME-3M melanoma = test system: MALME-3M melanoma
MCF7 breast = test system: MCF7 breast
MDA-N = test system: MDA-N
MOLT-4 leukemia = test system: MOLT-4 leukemia
NCI-H23 lung = test system: NCI-H23 lung
NCI-H522 lung = test system: NCI-H522 lung
OVCAR-5 ovarian = test system: OVCAR-5 ovarian
SF-268 CNS = test system: SF-268 CNS
SK-MEL-2 melanoma = test system: SK-MEL-2 melanoma
SK-MEL-28 melanoma = test system: SK-MEL-28 melanoma
SK-MEL-5 melanoma = test system: SK-MEL-5 melanoma
SK-OV-3 ovarian = test system: SK-OV-3 ovarian
SR leukemia = test system: SR leukemia
UACC-257 melanoma = test system: UACC-257 melanoma
UACC-62 melanoma = test system: UACC-62 melanoma
UO-31 renal = test system: UO-31 renal
786-0 renal = test system: 786-0 renal
A498 renal = test system: A498 renal
A549 NSCLC = test system: A549 NSCLC
ACHN renal = test system: ACHN renal
CAKI-1 renal = test system: CAKI-1 renal
HCT-116 colon = test system: HCT-116 colon
HCT-15 colon = test system: HCT-15 colon
HS 578T breast = test system: HS 578T breast
HT29 colon = test system: HT29 colon
K-562 leukemia = test system: K-562 leukemia
KM12 colon = test system: KM12 colon
LOX IMVI melanoma = test system: LOX IMVI melanoma
MDA-MB-231 breast = test system: MDA-MB-231 breast
MDA-MB-435 = test system: MDA-MB-435
NCI-H226 lung = test system: NCI-H226 lung
NCI-H460 lung = test system: NCI-H460 lung
NCI/ADR-RES ovarian = test system: NCI/ADR-RES ovarian
OVCAR-3 ovarian = test system: OVCAR-3 ovarian
OVCAR-4 ovarian = test system: OVCAR-4 ovarian
OVCAR-8 ovarian = test system: OVCAR-8 ovarian
PC-3 prostate = test system: PC-3 prostate
RXF 393 renal = test system: RXF 393 renal
SF-295 CNS = test system: SF-295 CNS
SN12C renal = test system: SN12C renal
SNB-19 CNS = test system: SNB-19 CNS
SW-620 colon = test system: SW-620 colon
T-47D breast = test system: T-47D breast
TK-10 renal = test system: TK-10 renal
U251 CNS = test system: U251 CNS
CCRF-CEM leukemia = test system: CCRF-CEM leukemia
HCC-2998 colon = test system: HCC-2998 colon
RPMI-8226 leukemia = test system: RPMI-8226 leukemia
SF-539 CNS = test system: SF-539 CNS
SNB-75 CNS = test system: SNB-75 CNS

CC1(C)[C@H](O)CC[C@]2(C)C3=CC[C@@]4(C)[C@@H]5C[C@](C)(CO)CC[C@]5(C)CC[C@]4(C)C3=CC[C@@H]12
TGI (BT-549 breast): > 100 µM | TGI (COLO 205 colon): > 100 µM | TGI (DU-145 prostate): > 100 µM | TGI (EKVX NSCLC): > 100 µM | TGI (HL-60(TB) leukemia): > 100 µM | TGI (HOP-62 NSCLC): > 100 µM | TGI (HOP-92 NSCLC): > 100 µM | TGI (IGROV1 ovarian): > 100 µM | TGI (M14 melanoma): > 100 µM | TGI (MALME-3M melanoma): > 100 µM | TGI (MCF7 breast): > 100 µM | TGI (MDA-N): > 100 µM | TGI (MOLT-4 leukemia): > 100 µM | TGI (NCI-H23 lung): > 100 µM | TGI (NCI-H522 lung): > 100 µM | TGI (OVCAR-5 ovarian): > 100 µM | TGI (SF-268 CNS): > 100 µM | TGI (SK-MEL-2 melanoma): > 100 µM | TGI (SK-MEL-28 melanoma): > 100 µM | TGI (SK-MEL-5 melanoma): > 100 µM | TGI (SK-OV-3 ovarian): > 100 µM | TGI (SR leukemia): 4.72 µM | TGI (UACC-257 melanoma): > 100 µM | TGI (UACC-62 melanoma): > 100 µM | TGI (UO-31 renal): 3.62 µM

CNC(Cc1ccccc1)c1cccc(OC)c1O (stereo not drawn)
TGI (786-0 renal): > 100 µM | TGI (A498 renal): > 100 µM | TGI (A549 NSCLC): > 100 µM | TGI (ACHN renal): > 100 µM | TGI (BT-549 breast): > 100 µM | TGI (CAKI-1 renal): > 100 µM | TGI (DU-145 prostate): > 100 µM | TGI (EKVX NSCLC): > 100 µM | TGI (HCT-116 colon): > 100 µM | TGI (HCT-15 colon): > 100 µM | TGI (HOP-62 NSCLC): > 100 µM | TGI (HOP-92 NSCLC): > 100 µM | TGI (HS 578T breast): > 100 µM | TGI (HT29 colon): > 100 µM | TGI (IGROV1 ovarian): > 100 µM | TGI (K-562 leukemia): > 100 µM | TGI (KM12 colon): > 100 µM | TGI (LOX IMVI melanoma): > 100 µM | TGI (M14 melanoma): > 100 µM | TGI (MALME-3M melanoma): > 100 µM | TGI (MDA-MB-231 breast): > 100 µM | TGI (MDA-MB-435): > 100 µM | TGI (MDA-N): > 100 µM | TGI (MOLT-4 leukemia): > 100 µM | TGI (NCI-H226 lung): > 100 µM | TGI (NCI-H23 lung): > 100 µM | TGI (NCI-H460 lung): > 100 µM | TGI (NCI-H522 lung): > 100 µM | TGI (NCI/ADR-RES ovarian): > 100 µM | TGI (OVCAR-3 ovarian): > 100 µM | TGI (OVCAR-4 ovarian): > 100 µM | TGI (OVCAR-5 ovarian): > 100 µM | TGI (OVCAR-8 ovarian): > 100 µM | TGI (PC-3 prostate): > 100 µM | TGI (RXF 393 renal): > 100 µM | TGI (SF-268 CNS): > 100 µM | TGI (SF-295 CNS): > 100 µM | TGI (SK-MEL-2 melanoma): > 100 µM | TGI (SK-MEL-28 melanoma): > 100 µM | TGI (SK-MEL-5 melanoma): > 100 µM | TGI (SN12C renal): > 100 µM | TGI (SNB-19 CNS): > 100 µM | TGI (SR leukemia): > 100 µM | TGI (SW-620 colon): > 100 µM | TGI (T-47D breast): 60.4 µM | TGI (TK-10 renal): > 100 µM | TGI (U251 CNS): > 100 µM | TGI (UACC-257 melanoma): 53.9 µM | TGI (UACC-62 melanoma): > 100 µM | TGI (UO-31 renal): > 100 µM

CC(=O)CN=C(C)NNc1ccc([N+](=O)[O-])cc1[N+](=O)[O-]
TGI (786-0 renal): > 100 µM | TGI (A498 renal): > 100 µM | TGI (A549 NSCLC): > 100 µM | TGI (ACHN renal): > 100 µM | TGI (CAKI-1 renal): > 100 µM | TGI (CCRF-CEM leukemia): > 100 µM | TGI (COLO 205 colon): > 100 µM | TGI (DU-145 prostate): > 100 µM | TGI (EKVX NSCLC): > 100 µM | TGI (HCC-2998 colon): > 100 µM | TGI (HCT-116 colon): > 100 µM | TGI (HCT-15 colon): > 100 µM | TGI (HOP-62 NSCLC): > 100 µM | TGI (HS 578T breast): > 100 µM | TGI (HT29 colon): > 100 µM | TGI (IGROV1 ovarian): > 100 µM | TGI (K-562 leukemia): > 100 µM | TGI (LOX IMVI melanoma): > 100 µM | TGI (M14 melanoma): > 100 µM | TGI (MALME-3M melanoma): > 100 µM | TGI (MCF7 breast): > 100 µM | TGI (MDA-MB-231 breast): > 100 µM | TGI (MDA-MB-435): > 100 µM | TGI (MDA-N): > 100 µM | TGI (MOLT-4 leukemia): > 100 µM | TGI (NCI-H226 lung): > 100 µM | TGI (NCI-H23 lung): > 100 µM | TGI (NCI-H460 lung): > 100 µM | TGI (NCI-H522 lung): > 100 µM | TGI (NCI/ADR-RES ovarian): > 100 µM | TGI (OVCAR-3 ovarian): > 100 µM | TGI (OVCAR-4 ovarian): > 100 µM | TGI (OVCAR-5 ovarian): > 100 µM | TGI (OVCAR-8 ovarian): > 100 µM | TGI (PC-3 prostate): > 100 µM | TGI (RPMI-8226 leukemia): > 100 µM | TGI (RXF 393 renal): > 100 µM | TGI (SF-268 CNS): > 100 µM | TGI (SF-295 CNS): > 100 µM | TGI (SF-539 CNS): > 100 µM | TGI (SK-MEL-2 melanoma): > 100 µM | TGI (SK-MEL-28 melanoma): > 100 µM | TGI (SK-MEL-5 melanoma): > 100 µM | TGI (SK-OV-3 ovarian): > 100 µM | TGI (SN12C renal): > 100 µM | TGI (SNB-19 CNS): > 100 µM | TGI (SNB-75 CNS): > 100 µM | TGI (SR leukemia): > 100 µM | TGI (SW-620 colon): > 100 µM | TGI (T-47D breast): > 100 µM | TGI (U251 CNS): > 100 µM | TGI (UACC-62 melanoma): > 100 µM | TGI (UO-31 renal): > 100 µM
